Publication PMC12345137 (mBio, 2025)
Where two headings read alike, the source gives them in different places. Positions of bridges follow the written chain, without caps; N, C: chain ends. Residues, ends and D or L forms follow the SMILES beside them.

How the values were obtained:
SA AgrC-I = SA AgrC-I (Staphylococcus aureus, UniProt O07911); assay: β-Lactamase assay, reporter strain RN10829 (P2-agrA:P3-blaZ) with pagrC-I; assay type: cell-based
Text: The β-lactamase reporter strain RN10829 (P2-agrA:P3-blaZ) ([62]), with pagrC-I ([63]), pagrC-II, pagrC-III, or pagrC-IV ([11]), substituting the native agr locus with a chromosomal integration of P2-agrA and P3-blaZ and a plasmid from which a wild-type variant of the corresponding AgrC is expressed, was used to assess inhibition and activation of the AgrC receptor via β-lactamase activity in response to varying concentrations of the QS modulating peptides. Overnight cultures of the reporter strains in TSB medium were diluted 1:250 in fresh TSB medium and grown to OD600 = 0.35–0.40 (early exponential phase) at 37°C. Peptide solutions (10 μL) in 1:10 serial dilutions from DMSO stock solutions (1 mM) in TSB medium (final concentrations = 10 μM–10 pM) were added to each well of a clear 96-well plate as well as solutions (10 μL) of cognate AIP (final concentration = 100 nM) in TSB medium followed by 80 μL of bacterial cells. […] The 96-well plates were incubated at 37°C shaking at 200 rpm for 1 h and immediately frozen down at −80°C to minimize growth during nitrocefin treatment. Next, the 96-well plates were thawed, and OD600 values were determined using a plate reader followed by the addition of 50 μL of nitrocefin solution to the wells (final concentration = 33.3 μg/mL). β-Lactamase activity was monitored at OD486 every 20 s for 10 min at 37°C using a plate-reader. Linear nitrocefin conversion rates were plotted to obtain IC50 values by non-linear regression with variable slope using GraphPad Prism 10.4 software. Assays were performed at least as duplicate determinations in biological triplicate.

SA AgrC-III = SA AgrC-III (Staphylococcus aureus, UniProt O33590); assay: β-Lactamase assay, reporter strain RN10829 (P2-agrA:P3-blaZ) with pagrC-III; assay type: cell-based; conditions: for IC50, SA AgrC-III, b-lactamase assay: 100 nM cognate AIP, ± SEM, -b = no inhibition recorded at the highest AIP concentration tested, -a = only partial inhibition observed, this study (curves in Fig. S21)
Text: (§1) The β-lactamase reporter strain RN10829 (P2-agrA:P3-blaZ) ([62]), with pagrC-I ([63]), pagrC-II, pagrC-III, or pagrC-IV ([11]), substituting the native agr locus with a chromosomal integration of P2-agrA and P3-blaZ and a plasmid from which a wild-type variant of the corresponding AgrC is expressed, was used to assess inhibition and activation of the AgrC receptor via β-lactamase activity in response to varying concentrations of the QS modulating peptides. Overnight cultures of the reporter strains in TSB medium were diluted 1:250 in fresh TSB medium and grown to OD600 = 0.35–0.40 (early exponential phase) at 37°C. Peptide solutions (10 μL) in 1:10 serial dilutions from DMSO stock solutions (1 mM) in TSB medium (final concentrations = 10 μM–10 pM) were added to each well of a clear 96-well plate as well as solutions (10 μL) of cognate AIP (final concentration = 100 nM) in TSB medium followed by 80 μL of bacterial cells. Control wells for 100% β-lactamase activity were wells replacing peptide solution with TSB media (10 μL), and control wells for 0% β-lactamase activity were wells replacing both peptide and cognate AIP solutions with TSB medium (20 μL). The 96-well plates were incubated at 37°C shaking at 200 rpm for 1 h and immediately frozen down at −80°C to minimize growth during nitrocefin treatment. Next, the 96-well plates were thawed, and OD600 values were determined using a plate reader followed by the addition of 50 μL of nitrocefin solution to the wells (final concentration = 33.3 μg/mL). β-Lactamase activity was monitored at OD486 every 20 s for 10 min at 37°C using a plate-reader. Linear nitrocefin conversion rates were plotted to obtain IC50 values by non-linear regression with variable slope using GraphPad Prism 10.4 software. Assays were performed at least as duplicate determinations in biological triplicate.

SA AgrC-IV = SA AgrC-IV (Staphylococcus aureus, UniProt Q309Z2); assay: β-Lactamase assay, reporter strain RN10829 (P2-agrA:P3-blaZ) with pagrC-IV; assay type: cell-based; conditions: for IC50, SA AgrC-IV, b-lactamase assay: 100 nM cognate AIP, ± SEM, -b = no inhibition recorded at the highest AIP concentration tested, -a = only partial inhibition observed, this study (curves in Fig. S22)
Text: as §1

[1] = test system: S. epidermidis (SE) agr-II; conditions: fluorescence; from supernatant; ref (18); cited from earlier work
SA AgrC-II = SA AgrC-II (Staphylococcus aureus, UniProt O33587); assay: β-Lactamase assay, reporter strain RN10829 (P2-agrA:P3-blaZ) with pagrC-II; assay type: cell-based; conditions: for IC50, SA AgrC-II, b-lactamase assay: 100 nM cognate AIP, ± SEM, -b = no inhibition recorded at the highest AIP concentration tested, -a = only partial inhibition observed, this study (curves in Fig. S20)
Text: as §1

S. epidermidis agr-II = S. epidermidis agr-II (Staphylococcus epidermidis, UniProt Q8VSX5); assay: cell-based; assay type: cell-based; conditions: fluorescent reporter strain; peptides tested at 1000, 50, 2.5, 0.125 nM or in dose-response
Protocol: (§2) Peptides were evaluated for the ability to interfere with agr-mediated quorum sensing in S. aureus (AH1677, AH430, AH1747, and AH1872 for agr-I–IV, respectively) ([40]) using reporter strains expressing yellow fluorescent protein (YFP) upon agr activation. Interference with agr-mediated quorum sensing in S. epidermidis (AH3408, AH3623, and AH3409 for agr-I–III, respectively) ([45]), and S. lugdunensis (AH4031 for agr-I) ([37]) was evaluated using reporter strains expressing superfolder green fluorescent protein (sGFP) upon agr activation. Overnight cultures of the reporter strains were grown in TSB medium containing chloramphenicol (CAM, 10 μg/mL for S. aureus) or erythromycin (ERM, 10 μg/mL of S. epidermidis and S. lugdunensis) and diluted 1:100 in fresh TSB medium containing the same antibiotic. Assays were performed in sterile black 96-well plates with a clear bottom. […] DMSO stock solutions of peptides (1 mM) were diluted in TSB media and added (15 μL) in technical triplicate to the 96-well plate, followed by diluted bacterial overnight cultures (135 μL). Control wells for 100% agr activity were wells replacing the peptide solution with TSB medium (15 μL). […] Wells containing 150 μL TSB medium were used to measure background fluorescence. The 96-well plates were incubated in a humidified incubator at 37°C shaking at 1,000 rpm for 22–24 h and fluorescence (for GFP: excitation 479 nm, emission 520 nm; for YFP: excitation 500 nm, emission 541 nm; automatic gain), and OD600 values were subsequently measured using a plate reader. Background fluorescence was subtracted from all wells and further normalized to the corresponding OD600 value of the respective wells. The average fluorescence of control wells was used as a relative measure for 100% activation of the agr-circuit, and bar graphs were generated using GraphPad Prism 10.4 software. All assays were performed in at least a biological duplicate.
(§3) Overnight cultures of the reporter strains were grown in TSB medium containing chloramphenicol (CAM, 10 μg/mL for S. aureus) or erythromycin (ERM, 10 μg/mL of S. epidermidis and S. lugdunensis) and diluted 1:100 in fresh TSB medium containing the same antibiotic. Assays were performed in sterile black 96-well plates with clear bottoms. Peptide solutions (15 μL) in 1:5 serial dilutions from DMSO stock solutions (1 mM) in TSB medium were added to the 96-well plate in technical duplicate followed by diluted bacterial overnight cultures (135 μL). Control wells for 100% agr activity were wells replacing the peptide solution with TSB medium (15 μL). Wells containing 150 μL TSB medium were used to measure background fluorescence. The 96-well plates were incubated in a humidified incubator at 37°C shaking at 1,000 rpm for 22–24 h and fluorescence (for GFP: excitation 479 nm, emission 520 nm; for YFP: excitation 500 nm, emission 541 nm; automatic gain), and OD600 values were subsequently measured using a plate reader. Background fluorescence was subtracted from all wells and further normalized to the corresponding OD600 value of the respective wells. The average fluorescence of control wells was used as a relative measure for 100% activation of the agr-circuit. Relative agr activity was plotted to obtain IC50 values by non-linear regression with variable slope using GraphPad Prism 10.4 software. All assays were performed in biological triplicate.

[2] = test system: S. epidermidis (SE) agr-III; conditions: fluorescence; from supernatant; ref (18); cited from earlier work
[3] = test system: S. epidermidis (SE) agr-I; conditions: fluorescence, cited from earlier work
S. aureus (SA) agr-III = conditions: fluorescence, cited from earlier work
S. aureus (SA) agr-II = conditions: fluorescence, cited from earlier work
S. aureus agr-II = S. aureus agr-II (Staphylococcus aureus, UniProt O33587); assay: cell-based
Protocol: as §2, §3

S. epidermidis agr-III = S. epidermidis agr-III (Staphylococcus epidermidis, UniProt Q8VSX2); assay: cell-based; assay type: cell-based
Protocol: as §2, §3

S. aureus agr-IV = S. aureus agr-IV (Staphylococcus aureus, UniProt Q309Z2); assay: cell-based; assay type: cell-based; conditions: fluorescent reporter strain; peptides tested at 1000, 50, 2.5, 0.125 nM or in dose-response
Protocol: as §2, §3

S. aureus (SA) agr-IV = conditions: fluorescence, cited from earlier work
S. aureus (SA) agr-I = conditions: fluorescence; ref (15); cited from earlier work

Sequence of SA AgrC-II (O33587 entry or part of it): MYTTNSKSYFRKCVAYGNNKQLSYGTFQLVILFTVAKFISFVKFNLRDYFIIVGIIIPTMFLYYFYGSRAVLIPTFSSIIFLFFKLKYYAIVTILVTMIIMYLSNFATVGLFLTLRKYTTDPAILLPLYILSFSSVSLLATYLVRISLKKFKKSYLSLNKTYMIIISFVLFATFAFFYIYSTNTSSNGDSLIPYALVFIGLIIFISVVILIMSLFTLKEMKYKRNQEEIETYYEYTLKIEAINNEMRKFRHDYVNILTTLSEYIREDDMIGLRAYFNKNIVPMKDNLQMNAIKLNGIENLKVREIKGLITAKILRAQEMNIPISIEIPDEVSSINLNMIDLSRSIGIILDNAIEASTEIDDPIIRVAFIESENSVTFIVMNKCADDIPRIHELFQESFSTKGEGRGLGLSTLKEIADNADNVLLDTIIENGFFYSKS
Sequence of SA AgrC-IV (Q309Z2 entry or part of it): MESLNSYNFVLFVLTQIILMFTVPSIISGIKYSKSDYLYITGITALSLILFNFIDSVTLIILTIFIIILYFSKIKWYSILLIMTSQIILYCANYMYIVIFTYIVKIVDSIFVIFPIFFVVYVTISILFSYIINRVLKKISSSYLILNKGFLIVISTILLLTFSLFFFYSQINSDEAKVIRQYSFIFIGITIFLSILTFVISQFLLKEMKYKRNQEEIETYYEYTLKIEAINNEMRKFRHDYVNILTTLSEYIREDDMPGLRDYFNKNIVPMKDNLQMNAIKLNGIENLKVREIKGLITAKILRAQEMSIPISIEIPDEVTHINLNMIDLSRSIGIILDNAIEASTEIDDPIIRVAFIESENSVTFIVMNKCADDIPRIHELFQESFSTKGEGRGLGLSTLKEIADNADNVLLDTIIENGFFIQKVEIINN
Sequence of SA AgrC-III (O33590 entry or part of it): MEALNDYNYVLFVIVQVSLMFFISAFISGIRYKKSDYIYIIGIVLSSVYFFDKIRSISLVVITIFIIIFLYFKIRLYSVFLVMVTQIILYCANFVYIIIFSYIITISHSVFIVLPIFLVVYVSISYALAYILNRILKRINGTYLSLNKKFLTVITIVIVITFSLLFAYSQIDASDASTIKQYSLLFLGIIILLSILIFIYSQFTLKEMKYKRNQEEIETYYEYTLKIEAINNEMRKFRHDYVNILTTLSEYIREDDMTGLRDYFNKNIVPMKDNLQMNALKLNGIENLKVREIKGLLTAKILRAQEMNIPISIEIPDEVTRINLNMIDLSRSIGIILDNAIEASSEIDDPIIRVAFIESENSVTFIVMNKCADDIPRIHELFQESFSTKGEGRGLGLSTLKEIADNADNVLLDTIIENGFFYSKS
Sequence of SA AgrC-I (O07911 entry or part of it): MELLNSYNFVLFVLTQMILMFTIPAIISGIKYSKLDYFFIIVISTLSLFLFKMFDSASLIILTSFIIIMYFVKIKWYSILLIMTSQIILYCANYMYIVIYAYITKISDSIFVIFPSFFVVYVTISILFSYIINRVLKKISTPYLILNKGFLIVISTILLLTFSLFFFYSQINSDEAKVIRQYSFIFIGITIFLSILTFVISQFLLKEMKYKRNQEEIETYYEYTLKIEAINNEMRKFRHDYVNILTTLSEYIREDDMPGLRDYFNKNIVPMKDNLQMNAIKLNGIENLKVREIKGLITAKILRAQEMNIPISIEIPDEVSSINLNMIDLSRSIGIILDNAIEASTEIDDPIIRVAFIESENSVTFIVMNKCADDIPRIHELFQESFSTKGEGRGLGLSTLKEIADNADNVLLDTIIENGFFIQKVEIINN
Sequence of S. aureus agr-II (O33587 entry or part of it): as the sequence (O33587 entry or part of it) above
Sequence of S. aureus agr-IV (Q309Z2 entry or part of it): as the sequence (Q309Z2 entry or part of it) above
Sequence of S. epidermidis agr-III (Q8VSX2 entry or part of it): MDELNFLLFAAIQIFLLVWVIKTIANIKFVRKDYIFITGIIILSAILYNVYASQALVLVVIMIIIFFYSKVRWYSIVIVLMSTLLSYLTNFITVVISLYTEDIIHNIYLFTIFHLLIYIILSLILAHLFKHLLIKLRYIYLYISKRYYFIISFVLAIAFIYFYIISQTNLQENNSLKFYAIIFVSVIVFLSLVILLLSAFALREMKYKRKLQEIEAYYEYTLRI
Sequence of S. epidermidis agr-II (Q8VSX5 entry or part of it): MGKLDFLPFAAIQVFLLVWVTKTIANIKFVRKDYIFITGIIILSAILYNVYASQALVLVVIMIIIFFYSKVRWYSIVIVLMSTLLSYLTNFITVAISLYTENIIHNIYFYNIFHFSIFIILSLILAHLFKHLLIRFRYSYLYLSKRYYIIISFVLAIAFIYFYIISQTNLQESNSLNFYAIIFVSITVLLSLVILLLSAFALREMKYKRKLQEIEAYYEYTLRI

SMILES | IC50 (SA AgrC-I) | IC50 (SA AgrC-III) | IC50, SA AgrC-IV, b-lactamase assay (SA AgrC-IV) | IC50, SA AgrC-II, b-lactamase assay (SA AgrC-II) | IC50, SA AgrC-III, b-lactamase assay (SA AgrC-III) | IC50 (SA AgrC-IV) | IC50 (SA AgrC-II) | further results
CC(C)C[C@@H]1NC(=O)[C@H](Cc2ccc(O)cc2)NC(=O)[C@H](CO)NC(=O)[C@H](C)NC(=O)[C@@H](NC(=O)[C@@H]2CCCN2C(=O)[C@H](CC(N)=O)NC(=O)[C@H](Cc2ccc(O)cc2)NC(=O)[C@H](CCCCN)NC(=O)[C@H](C)NC(=O)[C@H](C)NC(=O)[C@@H](N)CC(N)=O)CSC1=O [compound 7, S. epidermidis AIP-III] (H-NAAKYNPCASYL; thioester 8-C) | > 10000 nM | > 10000 nM | -b | -b | – | – | – | effect from supernatant (% inhibition, activation or no effect), SE agr-II [1]: no effect; QS interaction in words (inhibition / activation), S. epidermidis agr-II (S. epidermidis agr-II): activator; effect from supernatant (% inhibition, activation or no effect), SE agr-III [2]: activation; effect from supernatant (% inhibition, activation or no effect), SE agr-I ([3]; from supernatant, ref (18)): ~ 50%; IC50 ([3]; ref (11)): 34.3 nM
CC[C@H](C)[C@H](NC(=O)[C@@H](N)CC(=O)O)C(=O)N[C@H]1CSC(=O)[C@H](Cc2ccccc2)NC(=O)[C@H](Cc2ccc(O)cc2)NC(=O)[C@H](C)NC(=O)[C@H](CC(N)=O)NC1=O [compound 8, S. lugdunensis AIP-I] (H-DICNAYF; thioester 3-C; N-terminus assumed) | – | > 1000 nM | -b | -b | – | – | – | IC50 (S. aureus (SA) agr-III; ref (10)): 36.6 nM; IC50 (S. aureus (SA) agr-II; ref (10)): 419 nM; IC50 (S. aureus agr-II): 234 nM; IC50 (S. epidermidis agr-III): 66.8 ± 2.9 nM; QS interaction in words (inhibition / activation), S. aureus agr-IV (S. aureus agr-IV): no effect at 1000 nM; IC50 (S. aureus (SA) agr-IV; ref (10)): > 1000 nM
CC[C@H](C)[C@H](NC(=O)[C@@H](N)[C@@H](C)O)C(=O)N[C@@H](CO)C(=O)N[C@@H](CO)C(=O)N[C@H](C(=O)N[C@@H](CCCCN)C(=O)N1CCC[C@H]1C(=O)N[C@H]1CSC(=O)[C@H](C(C)C)NC(=O)[C@H](Cc2ccccc2)NC(=O)CNC(=O)[C@H]([C@@H](C)O)NC1=O)C(C)C [compound 18, S. cohnii AIP-I] (H-TISSVKPCTGFV; thioester 8-C) | > 10000 nM | – | -b | -b | -b | – | – | –
C[C@@H](O)[C@H](NC(=O)[C@H](CO)NC(=O)[C@@H](N)Cc1ccc(O)cc1)C(=O)N[C@H]1CSC(=O)[C@H](Cc2ccccc2)NC(=O)[C@H](Cc2ccc(O)cc2)NC(=O)[C@H](Cc2ccc(O)cc2)NC(=O)[C@H](CO)NC1=O [compound 20, S. caprae AIP-I] (H-YSTCSYYF; thioester 4-C) | 5.7 ± 0.8 nM | – | – | – | -a | 199 ± 19 nM | 252 ± 44 nM | IC50 (S. aureus (SA) agr-I): 0.6 ± 0.02 nM; IC50 (S. aureus (SA) agr-III; ref (15)): 0.2 nM; IC50 (S. aureus (SA) agr-II; ref (15)): 0.26 ± 0.08 nM; IC50 (S. aureus (SA) agr-IV; ref (15)): 8.98 ± 0.32 nM
C[C@H](N)C(=O)N[C@@H](CC(N)=O)C(=O)N1CCC[C@H]1C(=O)N[C@H]1CSC(=O)[C@H](Cc2ccccc2)NC(=O)[C@H](Cc2ccc(O)cc2)NC(=O)CNC(=O)[C@H](C)NC1=O [compound 21, S. pasteuri AIP-I] (H-ANPCAGYF; thioester 4-C) | 155 ± 34 nM | 191 ± 18 nM | – | -b | – | > 1000 nM | – | –
CC(C)C[C@H](NC(=O)[C@H](C)NC(=O)CNC(=O)[C@H](C)NC(=O)[C@@H](NC(=O)[C@H](C)N)[C@@H](C)O)C(=O)N1CCC[C@H]1C(=O)N[C@H]1CSC(=O)[C@H](Cc2ccccc2)NC(=O)[C@H](Cc2ccccc2)NC(=O)CNC(=O)CNC1=O [compound 23, S. succinus AIP-I] (H-ATAGALPCGGFF; thioester 8-C) | 117 ± 26 nM | > 1000 nM | – | – | – | > 1000 nM | 854 ± 65 nM | –
